The target of data set [1] is HIV-1 reverse transcriptase (Human immunodeficiency virus type 1 group M subtype B, UniProt P04585). In words: Inhibition of HIV reverse transcriptase (statement in background). The class given is biochemical. Conditions: metabolite of NNRTI from rat, monkey and human microsomes.

`O=C1Nc2c(F)cc(Cl)cc2C(C#CC2CC2)(C(F)(F)F)O1` (racemic) [Example 4, (+/−)-6-Chloro-4-(cyclopropylethynyl)-8-fluoro-4-(trifluoromethyl)-1,4-dihydro-2H-3,1-benzoxazin-2-one]: the melting point (as a rule, the temperature of the solid-liquid transition) fell in the range of 169 to 171 °C.

Compound `Cc1ccc2c(c1)C(C#CC1CC1)(C(C)C)OC(=O)N2` (racemic) [Example 5, (+/−)-4-Cyclopropylethynyl-4-isopropyl-6-methyl-1,4-dihydro-2H-3,1-benzoxazin-2-one] registered a melting point of 138 to 138.5 °C. For the compound `CC(=O)c1ccc2c(c1)C(C#CC1CC1)(C(F)(F)F)OC(=O)N2` (racemic) [Example 7, (+/−)-6-Acetyl-4-cyclopropylethynyl-4-trifluoromethyl-1,4-dihydro-2H-3,1-benzoxazin-2-one], the melting point lay within 197 to 200 °C. With `O=C1Nc2c(O)cc(Cl)cc2[C@@](C#CC2CC2)(C(F)(F)F)O1` [Example 2, (−)-6-Chloro-4-(cyclopropylethynyl)-8-hydroxy-4-(trifluoromethyl)-1,4-dihydro-2H-3,1-benzoxazin-2-one], the “inhibitor of HIV reverse transcriptase” value in data set [1] is given as “potent inhibitor”. On to `O=C1Nc2ccc(Cl)cc2[C@@](C#Cc2ccccn2)(C(F)(F)F)O1` [Example 23], for which the melting point was 185.8 °C.

Source of the values: patent publication US6492515B2, “4,4-disubstituted-1, 4-dihydro-2H-3, 1-benzoxazin-2-ones useful as HIV reverse transcriptase inhibitors and intermediates and processes for making the same” (Bristol-Myers Squibb Pharma Company, priority 1996, dated 2002).
